Reference: patent publication US8349867B2, “Quinoline compounds, intermediates, preparation methods and uses thereof” (Shanghai Institute of Pharmaceutical Industry, priority 2006, dated 2013)

Structure (SMILES)	melting point [°C]
O=C1C[C@H](O)C[C@@H](/C=C/c2cnc3ccccc3c2Sc2ccc(F)cc2)O1 [Compound A2]	130 to 132
COc1cccc(Sc2cc3ncc(/C=C/[C@@H]4C[C@@H](O)CC(=O)O4)c(Sc4cccc(OC)c4)c3cc2Sc2cccc(OC)c2)c1 [Compound A31]	57 to 59
CC(C)c1ccc(Sc2c(/C=C/[C@@H]3C[C@@H](O)CC(=O)O3)cnc3ccccc23)cc1 [Compound A4]	147 to 148

Further lines, results first:

melting point [°C]	Structure (SMILES)
182 to 184	CC(C)c1ccc(Sc2cc3ncc(/C=C/[C@@H]4C[C@@H](O)CC(=O)O4)c(Sc4ccc(C(C)C)cc4)c3cc2Sc2ccc(C(C)C)cc2)cc1 [Compound A32]
175 to 177	CC(C)c1ccc(Sc2c(/C=C/[C@@H]3C[C@@H](O)CC(=O)O3)cnc3cc(Cl)c(F)cc23)cc1 [Compound A12]
